The values below come from article PMC9909137 (Archives of Virology, 2023).

In data set [1] the test system is A/northern shoveler/Egypt/MB.D690OP/2016 (H7N3, 690OP). Description: organism not typed. Type of data set: cell-based, avian influenza H7N3 virus. The conditions noted are these: MDCK, 72 h, read-out: IC50 690OP.
Data set [2] deals with A/Puerto Rico/8/34 (H1N1). As to the kind of experiment: microbe, parasite or virus in culture. Type of data set: cell-based. The conditions noted are these: Influenza A virus, H1N1, MDCK, 72 h, read-out: IC50 H1N1.
A short description of another data set: in vitro. The conditions noted are these: dog.
Data set [3] relates to A/teal/Egypt/MB.D487OP/2016 (H7N3, 487OP). Description: organism not typed. In kind it is cell-based, avian influenza H7N3 virus. The conditions noted are these: MDCK, 72 h, read-out: IC50 487OP.
In data set [4] the test system is A/teal/Egypt/MB.D125OP/2015 (H7N3, 125OP). Description: organism not typed. Type of data set: cell-based, avian influenza H7N3 virus. The conditions noted are these: MDCK, 72 h, read-out: IC50 125OP.
Data set [5] deals with A/teal/Egypt/MB.D128OP/2015 (H7N3, 128OP). As to the kind of experiment: organism not typed. Type of data set: cell-based, avian influenza H7N3 virus. The conditions noted are these: read-out: IC50 128OP.
Data set [6] deals with Madin-Darby canine kidney (MDCK) cells. The conditions noted are these: dog.

Where two headings read alike, the source gives them in different places.

Broadly, the IC50 is the concentration that inhibits the measured activity by half. With `NC12CC3CC(CC(C3)C1)C2` [Amantadine, amantadine], the IC50 in data set [1] was 6.5 µM; in data set [2] it was 77.3 µM; in data set [3], 5.17 µM; in data set [4], 17 µM; in data set [5] (MDCK, 72 h), 45.2 µM. The CC50 in the data set “in vitro” was determined as 584 µM.
For `NC(=O)c1nc(F)c[nH]c1=O` [Favipiravir, favipiravir], the IC50 in data set [1] is 4.5 µM; in data set [2], 57.7 µM; in data set [3] it was 5.4 µM; in data set [4], 3.9 µM; in data set [5] (MDCK, 72 h), 6.02 µM; in data set [5], 6.02 µM. In the data set “in vitro”, this molecule gave a CC50 of 1250 µM.
In the case of `CCOC(=O)C1=C[C@@H](OC(CC)CC)[C@H](NC(C)=O)[C@@H](N)C1` [Oseltamivir, oseltamivir], the IC50 in data set [1] stood at 6.46 µM; in data set [2] it was 51.2 µM; in data set [3] it was 15.7 µM; in data set [4] it was 408 µM; in data set [5] (MDCK, 72 h) it was 85.7 µM. This molecule registered a CC50 in the data set “in vitro” of 516 µM.
Regarding `CCC(CC)COC(=O)[C@H](C)N[P@](=O)(OC[C@H]1O[C@@](C#N)(c2ccc3c(N)ncnn23)[C@H](O)[C@@H]1O)Oc1ccccc1` [Remdesivir, remdesivir], the IC50 in data set [1] came to 41.6 µM; in data set [2], 140 µM; in data set [3], 19.1 µM; in data set [4] it was 44.5 µM; in data set [5] (MDCK, 72 h), 26 µM. Moreover, the CC50 in data set [6] turned out to be 997 µM.
Regarding `CC(=O)N[C@H]1[C@H]([C@H](O)[C@H](O)CO)OC(C(=O)O)=C[C@@H]1N=C(N)N` [Zanamivir, zanamivir], the IC50 in data set [1] is 23.3 µM; in data set [2], 180 µM; in data set [3], 14.1 µM; in data set [4], 17.1 µM; in data set [5] (MDCK, 72 h), 85 µM. In “in vitro”, this molecule registered a CC50 of 1110 µM.
